Entries after “also recorded” stand apart in the source; their conditions may differ.
Legend:
[1] = system: C2C12 myoblasts; assay: C2C12 myoblast fusion in the presence of actin inhibitors; type: cell-based; conditions: C2C12 cells infected with GFP or Myomaker virus, Cytochalasin D 0.3 μM, lantrunculin B 0.1 μM
[2] = at 78 weeks, cited from earlier work
[3] = cited from earlier work
[4] = infantile-onset Pompe disease, compared to untreated historical control population

Compound	myoblast fusion [1]	myoblast fusion ([1]; listed as latrunculin B)	increase in percent predicted forced vital capacity ([2]; P=0.006 vs placebo) [%]	increase in distance walked in six minutes ([2]; average, every other week for 18 months, baseline approximately 325 meters, P=0.03 vs placebo)	overall survival [3, 4]	ventilator-free survival [3, 4]	side effects ([3]; intravenous infusion)
C=C1[C@@H](C)[C@H]2[C@H](Cc3ccccc3)NC(=O)[C@]23[C@H](OC(C)=O)/C=C/[C@@](C)(O)C(=O)[C@@H](C)C/C=C/[C@H]3[C@@H]1O [cytochalasin D]	completely blocked fusion; also recorded: abolished	–	–	–	–	–	–
C/C1=C/C(=O)O[C@@H]2C[C@@H](CC[C@H](C)/C=C\CC1)O[C@@](O)([C@@H]1CSC(=O)N1)C2 [lantrunculin B, latrunculin B]	completely blocked fusion	abolished	–	–	–	–	–
alglucosidase alfa [Myozyme]	–	–	1.2	approximately 25 meters	clearly prolongs	clearly prolongs	fever, flushing, skin rash, increased heart rate and even shock
